Results published in patent US20080089860A1, “Therapeutic compositions and methods useful in treating cancer” (priority 2006, published 2008).

Legend:
[1] = test system: NB4 cells; assay: NB4 cell cycle analysis and Annexin V/propidium iodide assay; assay type: cell-based, human
Experimental: […] Briefly, the cells were fixed in cold ethanol and incubated for 30 minutes at 4° C. in the dark with a solution of […], 1 mg/ml RNase and 0.1% NP-40. Analysis was performed immediately after staining using the CELLFIT program (Becton Dickinson, Mountain View, Calif.).
] Annexin V staining of exposed membrane phospholipid phosphatidylserine (PS) was done using the Annexin V assay kit (Pharmingen, San Diego, Calif.). Briefly, NB4 cells were cultured in the 10% FCS RPMI 1640 medium in the absence or presence of sodium stibogluconate (250 µg/ml) or ATRA (1 µM) for 3 days. Cells were then washed in PBS twice and stained in binding buffer (10 mM Hepes, pH 7.4; 140 mM NaCl; 2.5 mM CaCl2) containing Annexin V-FITC and propidium iodide for 15 min. The reaction was stopped by adding 10 volumes of binding buffer and analyzed by FACS (Becton Dickinson Facsvantage).

[2] = test system: DS cells; assay: DS lymphoma cell growth, MTT assay; assay type: cell-based, human; settings: day 3; IFN-alpha 1,000 u/ml
Experimental: (§1) For cell proliferation assays, cells were grown in 10% FCS culture medium containing various amounts of IFNs and/or sodium stibogluconate in 96 well plates and cultured at 37° C. for 3 or 6 days as indicated. The numbers of viable cells in proliferation assays were determined by MTT assays as described in Phatak et al., J. Immunol. 167, 3391 (2001).

[3] = test system: U266 cells; assay: U266 multiple myeloma cell growth, MTT assay; assay type: cell-based, human; settings: day 6
Experimental: as §1

[4] = molecular target: T1, PRL-1 (Homo sapiens, UniProt Q93096); assay: In vitro PTPase assay, recombinant PRL-1; assay type: biochemical; settings: 0.1-100 μg/ml
T1 construct: made in house; host or cells: E. coli DH5a
Excerpt: (§2) Sodium stibogluconate, suramin, sodium orthovanadate and GST fusion protein of SHP-1 have been described previously (Pathak et al., J. Imumol. 167, 3391 (2001)). Meglumine antimonate was obtained from Aventis. cDNAs of human PRL-1, PRL-2 and PRL-3 coding region were derived by RT-PCR from H9 cells (Safai, et al., Lancet 1, 1438 (1984)) and inserted in frame into the pGEX vector. cDNA of PRL-1R86 was generated by recombinant DNA technique using PRL-1 cDNA as template following established procedures (Jiao, et al., Mol. Cell. Biol. 16, 6985 (1996)). […]
(§3) In vitro PTPase assays were used to determine the effects of compounds on recombinant PTPases, following established procedures using a synthetic phosphotyrosine peptide or DiFMUP as the substrate (Pathak et al., J. Imumol. 167, 3391 (2001)). […] PTPase activity of individual reactions was measured by adding 100 µL of malachite green solution (UBI) and then quantifying the amounts of free phosphate cleaved by the PTPase from the peptide substrate by spectrometry (OD660 nm). […] Relative PTPase activities were calculated based on the formula: (PTPase activity in the presence of an inhibitory compound/PTPase activity in the absence of the compound)× 100%. […]

[5] = molecular target: T2, PRL-2 (Homo sapiens, UniProt Q12974); assay: In vitro PTPase assay, recombinant PRL-2; assay type: biochemical
T2 construct: made in house; host or cells: E. coli DH5a
Excerpt: as §2, §3

T1 sequence (Q93096 whole entry): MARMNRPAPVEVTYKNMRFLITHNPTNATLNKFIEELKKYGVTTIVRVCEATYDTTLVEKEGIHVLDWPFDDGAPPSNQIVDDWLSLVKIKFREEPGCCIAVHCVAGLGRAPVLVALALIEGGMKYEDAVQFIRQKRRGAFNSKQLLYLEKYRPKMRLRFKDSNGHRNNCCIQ
T2 sequence (Q12974 whole entry): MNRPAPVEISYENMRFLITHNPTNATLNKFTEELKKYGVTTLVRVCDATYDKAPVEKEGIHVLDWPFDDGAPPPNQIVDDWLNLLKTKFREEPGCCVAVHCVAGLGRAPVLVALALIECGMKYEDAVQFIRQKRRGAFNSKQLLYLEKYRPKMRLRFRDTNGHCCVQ

PRL-1 activity retained [4]	effectiveness against PRL-2 [5]	SMILES	Annexin V staining of NB4 cells ([1]; 250 μg/ml for 6 days)	cell cycle distribution of NB4 cells ([1]; 3 days, sodium stibogluconate 250 μg/ml, ATRA 1 μM)	activity against DS cells [2]	growth inhibition of U266 cells by the drug by itself [3]
		O.O.O.O.O.O.O.O.O.O=C([O-])[C@@H]1[O][Sb]2([O-])([O][Sb]34([OH])[O][C@H]([C@H](O)CO)[C@H]([O]3)[C@H](C(=O)[O-])[O]4)[O][C@H]([C@H](O)CO)[C@@H]1[O]2.[Na+].[Na+].[Na+] [sodium stibogluconate]	stained positive by Annexin V	significant increase of cells at S phase	modest activity	substantial growth inhibition activity
60-70%	not effective	CC(=O)N1CCN(c2ccc(OCC3COC(Cn4ccnc4)(c4ccc(Cl)cc4Cl)O3)cc2)CC1 (centres unmarked) [ketoconazole]				
70-80%	not effective	N=C(N)c1ccc(OCCCCCOc2ccc(C(=N)N)cc2)cc1 [pentamidine]				
